What was measured:
Test in all cases: relative viability (nuclei count vs DMSO), 5 days (fraction); higher = more cells survive
Midostaurin + Vorinostat = compound: CO[C@@H]1[C@H](N(C)C(=O)c2ccccc2)C[C@H]2O[C@]1(C)n1c3ccccc3c3c4c(c5c6ccccc6n2c5c31)C(=O)NC4 [Midostaurin] + O=C(CCCCCCC(=O)Nc1ccccc1)NO [Vorinostat] (partner 1 µM)
Outline: (§1)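 After 5 days of treatment, lung cancer cells in 1536-well plates were fixed and stained in a single step (final 0.05% Triton X-100, 1% formaldehyde, 1 ug/ml Hoechst) and their nuclei counted on 4× images. Treatment had been applied by pin tool the day after seeding as one drug alone or as a fixed anchor-drug dose with five library-drug doses (not always all listed) in √10 steps. Relative viability is the nuclei count of treated wells divided by that of vehicle wells, and values are medians of duplicate plates.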

Midostaurin + Bortezomib = compound: CO[C@@H]1[C@H](N(C)C(=O)c2ccccc2)C[C@H]2O[C@]1(C)n1c3ccccc3c3c4c(c5c6ccccc6n2c5c31)C(=O)NC4 [Midostaurin] + CC(C)C[C@H](NC(=O)[C@H](Cc1ccccc1)NC(=O)c1cnccn1)B(O)O [Bortezomib] (partner 0.002 µM)
Outline: as §1

Midostaurin + Luminespib = compound: CO[C@@H]1[C@H](N(C)C(=O)c2ccccc2)C[C@H]2O[C@]1(C)n1c3ccccc3c3c4c(c5c6ccccc6n2c5c31)C(=O)NC4 [Midostaurin] + CCNC(=O)c1noc(-c2cc(C(C)C)c(O)cc2O)c1-c1ccc(CN2CCOCC2)cc1 [Luminespib] (partner 0.01 µM)
Outline: as §1

[1] = compound: COc1cc(-c2nn([C@H]3CC[C@H](N4CCN(C(C)=O)CC4)CC3)c3ncnc(N)c23)ccc1NC(=O)c1cc2ccccc2n1C + NC(=O)Nc1cc(-c2cccc(F)c2)sc1C(=O)N[C@H]1CCCNC1 [AZD7762] (partner 0.2 µM)
Outline: as §1

Midostaurin + AZD7762 = compound: CO[C@@H]1[C@H](N(C)C(=O)c2ccccc2)C[C@H]2O[C@]1(C)n1c3ccccc3c3c4c(c5c6ccccc6n2c5c31)C(=O)NC4 [Midostaurin] + NC(=O)Nc1cc(-c2cccc(F)c2)sc1C(=O)N[C@H]1CCCNC1 [AZD7762] (partner 0.2 µM)
Outline: as §1

Cell Line | relative viability (Midostaurin + Vorinostat; first compound 0.01 µM) | relative viability (Midostaurin + Vorinostat; first compound 0.03162 µM) | relative viability (Midostaurin + Vorinostat; first compound 0.1 µM) | relative viability (Midostaurin + Vorinostat; first compound 0.3162 µM) | relative viability (Midostaurin + Bortezomib; first compound 0.01 µM) | relative viability (Midostaurin + Bortezomib; first compound 0.03162 µM) | relative viability (Midostaurin + Bortezomib; first compound 0.1 µM) | relative viability (Midostaurin + Bortezomib; first compound 0.3162 µM) | relative viability (Midostaurin + Luminespib; first compound 0.01 µM) | relative viability (Midostaurin + Luminespib; first compound 0.03162 µM) | relative viability (Midostaurin + Luminespib; first compound 0.1 µM) | relative viability (Midostaurin + Luminespib; first compound 0.3162 µM) | relative viability ([1]; first compound 0.0128 µM) | relative viability ([1]; first compound 0.04048 µM) | relative viability ([1]; first compound 0.128 µM) | relative viability ([1]; first compound 1.28 µM) | relative viability (Midostaurin + AZD7762; first compound 0.01 µM) | relative viability (Midostaurin + AZD7762; first compound 0.03162 µM) | relative viability (Midostaurin + AZD7762; first compound 0.1 µM) | relative viability (Midostaurin + AZD7762; first compound 0.3162 µM)
COR-L23 | 0.456 | 0.311 | 0.276 | 0.205 | 0.871 | 0.957 | 0.936 | 0.81 | 0.605 | 0.644 | 0.541 | 0.625 |  |  |  |  |  |  |  | 
NCI-H522 | 0.862 | 1.18 | 0.827 | 1.03 |  |  |  |  | 1.07 | 1.51 | 1.26 | 1.21 | 0.73 | 0.848 | 0.909 | 0.892 | 0.86 | 0.833 | 0.864 | 0.91
SW 900 | 0.402 | 0.502 | 0.52 | 0.458 |  |  |  |  | 0.192 | 0.198 | 0.189 | 0.151 | 0.547 | 0.564 | 0.612 | 0.402 | 0.755 | 0.684 | 0.617 | 0.476
NCI-H1792 |  |  |  |  | 0.943 | 0.949 | 0.911 | 0.949 | 0.399 | 0.429 | 0.388 | 0.446 | 0.646 | 0.679 | 0.632 | 0.517 | 0.786 | 0.725 | 0.67 | 0.176
NCI-H1703 |  |  |  |  | 0.427 | 0.256 | 0.373 | 0.153 |  |  |  |  | 0.138 | 0.114 | 0.129 | 0.117 | 0.141 | 0.115 | 0.123 | 0.12
SK-LU-1 | 0.735 | 0.765 | 0.685 | 0.47 | 1.15 | 1.31 | 1.36 | 1.19 | 0.202 | 0.199 | 0.206 | 0.194 |  |  |  |  |  |  |  | 
COR-L 105 | 0.899 | 0.846 | 0.702 | 0.535 | 0.823 | 0.804 | 0.668 | 0.499 | 0.597 | 0.686 | 0.777 | 0.621 |  |  |  |  |  |  |  | 
Calu-6 |  |  |  |  | 0.934 | 0.973 | 0.96 | 0.791 |  |  |  |  |  |  |  |  |  |  |  | 
HCC-366 | 0.364 | 0.306 | 0.308 | 0.0688 | 1.02 | 1.04 | 1.02 | 1.1 |  |  |  |  | 0.252 | 0.221 | 0.246 | 0.193 | 0.235 | 0.373 | 0.273 | 0.0975
NCI-H358 | 0.625 | 0.536 | 0.391 | 0.197 |  |  |  |  | 0.241 | 0.309 | 0.263 | 0.298 | 0.496 | 0.5 | 0.444 | 0.225 | 0.475 | 0.513 | 0.571 | 0.391
NCI-H1944 | 0.528 | 0.595 | 0.496 | 0.453 |  |  |  |  | 0.764 | 0.872 | 0.67 | 0.773 | 0.605 | 0.539 | 0.485 | 0.352 | 0.507 | 0.616 | 0.493 | 0.56
NCI-H1648 | 0.534 |  |  | 0.497 |  |  |  |  |  |  |  |  | 0.686 | 0.609 | 0.75 | 0.566 | 0.766 |  |  | 0.656
EBC-1 |  |  |  |  | 0.756 | 0.485 | 0.502 | 0.427 |  |  |  |  |  |  |  |  |  |  |  | 
NCI-H1299 |  |  |  |  | 1.03 | 0.987 | 0.95 | 1.01 |  |  |  |  |  |  |  |  |  |  |  | 
NCI-H2228 | 0.878 | 0.424 | 0.716 | 0.356 | 1.21 | 1.19 | 1 | 0.942 | 0.155 | 0.163 | 0.164 | 0.134 |  |  |  |  |  |  |  | 
NCI-H2342 | 0.741 | 0.764 | 0.836 | 0.831 |  |  |  |  | 0.704 | 0.708 | 0.738 | 0.754 | 0.464 | 0.422 | 0.477 | 0.361 | 0.558 | 0.503 | 0.489 | 0.451
IA-LM | 0.822 | 0.889 | 0.943 | 0.907 | 0.85 |  | 0.946 | 0.783 |  |  |  |  |  |  |  |  |  |  |  | 
SK-MES-1 | 1.07 | 0.968 | 0.982 | 1.08 |  |  |  |  | 0.785 | 0.804 | 0.733 | 0.336 |  |  |  |  |  |  |  | 
NCI-H2170 | 0.857 | 0.843 | 0.774 | 0.699 |  |  |  |  | 0.628 | 0.509 | 0.633 | 0.767 | 0.914 | 0.928 | 0.788 | 0.6 | 0.891 | 0.85 | 0.866 | 1.14
SW 1573 | 0.717 | 1.09 | 0.732 | 1.02 | 0.966 | 0.988 | 1.15 | 1.05 | 0.377 | 0.213 | 0.308 | 0.18 |  |  |  |  |  |  |  | 
NCI-H661 | 0.777 | 0.72 | 0.792 | 0.739 | 0.742 | 0.933 | 0.667 | 0.72 | 0.799 | 0.783 | 0.924 | 1.04 |  |  |  |  |  |  |  | 
NCI-H1793 | 0.766 | 0.789 | 0.854 | 0.296 |  |  |  |  | 0.281 | 0.307 | 0.169 | 0.168 | 0.591 | 0.341 | 0.326 | 0.192 | 0.395 | 0.48 | 0.388 | 0.213
NCI-H520 | 0.684 | 0.702 | 0.694 | 0.412 | 0.657 | 0.492 | 0.594 | 0.596 | 0.221 | 0.204 | 0.235 | 0.258 |  |  |  |  |  |  |  | 
NCI-H2023 | 0.601 | 0.78 | 0.5 | 0.146 | 0.974 | 0.961 | 0.963 | 0.567 | 0.627 | 0.753 | 0.589 | 0.333 |  |  |  |  |  |  |  | 
NCI-H2009 | 0.808 | 0.745 | 0.703 | 0.657 | 0.882 | 0.981 | 0.942 | 0.809 | 1.05 | 0.954 | 0.936 | 1 |  |  |  |  |  |  |  | 
